pIC50: −log10 of the molar value.
Columns and labels:
LRRK2 wild type enzyme = LRRK2 wild type enzyme (Homo sapiens, UniProt Q5S007); assay: Biochemical Assay: LRRK2 TR-FRET (LanthaScreen) kinase assay with LRRKtide substrate; conditions: LRRK2 Inhibition, Table 8
Procedure: 10 mM compound solution was prepared in DMSO. An 11-point, 3-fold dilution was performed, with highest concentration at 10 μM. A 10 mM compound DMSO solution was added to Labcyte LDV plate and the compound concentration of source plate was 10 mM. The 1st compound concentration of Inter plate(Labcyte 384 well PP plate) was 4.938×10^−1 mM which was prepared by transferring 1.5 μL of 10 mM compound from source plate to 28.9 μL DMSO. The 2nd compound concentration of Inter plate was 1.829×10^−2 mM which was prepared by transferring 60 nL of 10 mM compound from source plate to 32.7 μL DMSO. The 3rd compound concentration of Inter plate was 6.774×10^−4 mM which was prepared by transferring 2.5 nL of 10 mM compound from source plate to 36.9 μL DMSO. 100 nL of reference compound was dispensed in column 1 for low control wells and 100 nL of DMSO in column 24 for high control wells. Compounds were dispensed to column 2 to 23 of assay plate and backfilled with DMSO to a total volume of 100 nL.
A 2X LRRK2 enzyme solution (final concentration 3 nM) was prepared in assay buffer (Tris-HCl pH8.0:50 mM, MgCl2: 5 mM, EDTA: 1 mM, Brij-35:0.01%, 2 mM DTT). A 2× substrate solution was prepared: LRRK2 tide substrate (final concentration 400 nM) and ATP (final concentration 25 μM) in assay buffer. 5 μL 2× LRRK2 enzyme solution was dispensed to each well in assay plate by Multidrop. Assay plate was spun at 1,000 rpm for 1 min and incubated for 15 min at 23° C. 5 μL 2× ATP/LRRKtide solution was dispensed to each well in assay plate by Multidrop. Assay plate was spun at 1,000 rpm for 1 min and incubated for 120 min at 23° C.
(§1) A 2× detection solution was prepared: Tb-pERM (pLRRKtide) antibody (final concentration 0.25 nM) and EDTA (final concentration 10 mM) in TR-FRET dilution buffer. 10 μL 2× detection solution was dispensed to each well in assay plate to stop kinase reaction by Multidrop. Assay plate was spun at 1,000 rpm for 1 min and incubate for 30 min at 23° C. Assay plate was then read on Envision configured for LanthaScreen® TR-FRET. pS935 LRRK2 Cell Assay

[1] = target: T1, wild type LRRK2 overexpressed in recombinant HEK-293T cells (Homo sapiens, UniProt Q5S007); assay: pS935 LRRK2 Cell Assay (HTRF, phospho-LRRK2 Ser935); type: cell-based; conditions: LRRK2 Inhibition, Table 8, 2 hours compound incubation
T1 construct: host or cells: HEK293T (transient transfection with pCMV-LRRK2 WT plasmid)
T1 sequence (Q5S007 whole entry): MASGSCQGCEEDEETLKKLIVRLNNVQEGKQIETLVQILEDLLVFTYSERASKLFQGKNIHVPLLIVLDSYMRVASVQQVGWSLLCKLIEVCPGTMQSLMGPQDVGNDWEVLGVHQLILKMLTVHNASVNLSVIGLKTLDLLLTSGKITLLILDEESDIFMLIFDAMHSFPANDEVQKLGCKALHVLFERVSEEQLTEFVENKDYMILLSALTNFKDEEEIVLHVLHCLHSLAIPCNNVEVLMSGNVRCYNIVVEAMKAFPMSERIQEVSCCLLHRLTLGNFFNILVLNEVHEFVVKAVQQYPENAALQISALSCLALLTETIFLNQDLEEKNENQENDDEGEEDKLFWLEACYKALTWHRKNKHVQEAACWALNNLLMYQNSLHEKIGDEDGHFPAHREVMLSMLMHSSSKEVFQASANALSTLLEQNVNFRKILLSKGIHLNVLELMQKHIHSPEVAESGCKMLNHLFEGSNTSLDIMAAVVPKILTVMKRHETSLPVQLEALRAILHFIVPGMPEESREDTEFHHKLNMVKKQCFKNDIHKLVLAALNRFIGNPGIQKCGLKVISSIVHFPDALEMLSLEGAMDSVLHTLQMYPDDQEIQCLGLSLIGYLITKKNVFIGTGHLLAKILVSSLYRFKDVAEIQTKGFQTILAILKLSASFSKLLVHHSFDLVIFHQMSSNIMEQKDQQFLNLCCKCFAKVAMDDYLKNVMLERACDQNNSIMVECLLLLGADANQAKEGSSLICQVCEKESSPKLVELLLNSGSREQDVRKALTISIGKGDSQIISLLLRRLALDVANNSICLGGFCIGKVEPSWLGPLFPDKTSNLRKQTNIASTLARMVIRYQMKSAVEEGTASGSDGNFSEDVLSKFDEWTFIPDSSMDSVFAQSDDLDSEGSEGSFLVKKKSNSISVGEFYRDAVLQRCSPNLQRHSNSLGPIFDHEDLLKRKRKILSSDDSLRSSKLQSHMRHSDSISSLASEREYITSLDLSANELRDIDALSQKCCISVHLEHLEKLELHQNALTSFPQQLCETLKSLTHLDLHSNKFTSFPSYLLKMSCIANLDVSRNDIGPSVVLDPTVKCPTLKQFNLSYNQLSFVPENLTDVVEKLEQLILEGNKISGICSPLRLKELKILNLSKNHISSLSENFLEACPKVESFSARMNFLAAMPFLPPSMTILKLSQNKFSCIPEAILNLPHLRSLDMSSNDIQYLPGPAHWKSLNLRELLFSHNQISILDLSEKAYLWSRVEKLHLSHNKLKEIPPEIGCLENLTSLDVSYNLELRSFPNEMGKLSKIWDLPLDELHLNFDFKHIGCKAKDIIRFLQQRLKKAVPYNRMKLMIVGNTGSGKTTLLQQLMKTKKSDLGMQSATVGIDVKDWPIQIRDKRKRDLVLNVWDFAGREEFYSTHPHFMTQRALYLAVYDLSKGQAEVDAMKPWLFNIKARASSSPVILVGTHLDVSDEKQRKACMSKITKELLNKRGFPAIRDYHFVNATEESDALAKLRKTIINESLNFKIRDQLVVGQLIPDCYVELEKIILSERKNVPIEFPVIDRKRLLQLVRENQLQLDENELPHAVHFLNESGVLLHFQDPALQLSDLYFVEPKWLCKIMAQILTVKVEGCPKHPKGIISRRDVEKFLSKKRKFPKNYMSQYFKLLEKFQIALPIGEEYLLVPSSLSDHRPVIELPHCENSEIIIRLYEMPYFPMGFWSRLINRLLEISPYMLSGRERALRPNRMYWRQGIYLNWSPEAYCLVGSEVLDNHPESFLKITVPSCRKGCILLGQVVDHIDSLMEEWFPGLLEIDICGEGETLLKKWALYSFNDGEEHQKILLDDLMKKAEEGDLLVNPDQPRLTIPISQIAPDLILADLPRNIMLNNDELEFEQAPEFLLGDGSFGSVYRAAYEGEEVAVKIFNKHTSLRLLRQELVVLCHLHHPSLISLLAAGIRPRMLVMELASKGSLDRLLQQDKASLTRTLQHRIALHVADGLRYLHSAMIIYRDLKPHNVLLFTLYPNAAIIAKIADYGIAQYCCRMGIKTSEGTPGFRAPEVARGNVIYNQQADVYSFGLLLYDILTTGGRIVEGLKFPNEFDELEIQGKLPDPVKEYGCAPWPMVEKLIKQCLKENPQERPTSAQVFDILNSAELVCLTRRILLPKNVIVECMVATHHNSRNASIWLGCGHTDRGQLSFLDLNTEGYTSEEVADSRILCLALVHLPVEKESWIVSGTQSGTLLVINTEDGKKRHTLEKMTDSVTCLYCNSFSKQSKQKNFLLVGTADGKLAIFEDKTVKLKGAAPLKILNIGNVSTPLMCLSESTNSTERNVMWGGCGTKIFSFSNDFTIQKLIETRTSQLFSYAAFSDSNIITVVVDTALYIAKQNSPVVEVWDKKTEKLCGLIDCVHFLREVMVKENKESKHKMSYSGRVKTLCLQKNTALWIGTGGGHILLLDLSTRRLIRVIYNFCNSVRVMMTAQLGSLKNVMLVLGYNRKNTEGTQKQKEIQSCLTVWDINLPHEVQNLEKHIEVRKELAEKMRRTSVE
Procedure: as §1
The following protocol describes an in-vitro method for measuring phosphorylation at Ser935 on wild type LRRK2 overexpressed in recombinant HEK-293T cells. The method is based on HTRF technology, which combines Fluorescence Resonance Energy Transfer (FRET) with Time-Resolved measurement (TR). Phospho-LRRK2 (Ser935) is detected in a sandwich assay format using two different specific antibodies, one labelled with Eu3+-Cryptate (donor) and the second with d2(acceptor).When the fluorophores are in close proximity, excitation of the donor with a light source (flash lamp) stimulates FRET to the acceptor, which in turn fluoresces at a specific wavelength (665 nm). The fluorescence emission at 615 nm from the donor is also measured to allow ratiometric reduction of data. The specific signal is proportional to phospho-LRRK2 (Ser935).
Plasmid transient transfection: DMEM medium, FBS, DPBS, Trans-IT, OPTI-MEM reagents were allowed to warm to room temperature. HEK293T cells were cultured in DMEM +10% FBS complete medium in T150 flasks till around 80% confluency before transfection. Then cells were washed with 10 mL PBS and detached with 3 mL 0.25% typinsin. 30×10E6 HEK293T cells were seeded in DMEM +10% FBS complete medium to a 15 cm dish.
DNA, TransIT-LT1, OPTI-MEM complex were prepared: […] OPTI-MEM was added to a 15 mL cone tube, then […] plasmid was added to OPTI-MEM and mixed, followed by addition of 60 μL TransIT-LT1 to the plasmid OPTI-MEM mixture and mixing. The resulting mixture was incubated for 15 minutes.
The above plasmid, DNA and OPTI-MEM mixture was added dropwise to the 15 cm dish, ensuring the drops were evenly distributed. The culture dish was gently rocked back and forth and from left to right to evenly distribute the complex. The tranfected dish was incubated for 24 hours at 37° C., and 5% CO2.
Transfected HEK293T was collected in the 15 cm dish. Media was aspirated from tissue culture dish, and washed by dispensing 10 mL 1× DPBS into 15 cm dish. 1× DPBS was aspirated and 3 mL trypsin was dispensed to 15 cm dish. The dish was incubated with trypsin at room temperature for 3 min until the cells were detached. 10 mL of DMEM +10% FBS medium were added to 15 cm dish and triturated to ensure homogenous cell suspensions.
Homogenous cell suspensions were transferred to a 50 mL tube, and centrifuged for 5 minutes at 1,000 rmp/min. The supernatant was aspirated and resuspended with 20 mL complete medium. 1 mL of cell suspension was transferred for cell counting. The cell suspension was diluted to 2× 10E5 cells/ml. 50 μL cell suspensions were added to a 384-well plate. The plate was quick spun at 800 rpm for 1 minute, then incubate overnight at 37° C., 5% CO2.
Compound dispensing: compound was diluted (10 mM DMSO stock solution) and added to assay plate (top concentration: 10 μM, 3 fold serial dilution, 9 doses) with duplicates by Tecan liquid handler. The DMSO concentration of each well was normalized to 0.2%. Plates were quick spun at 1,000 rpm for 1 minute. Plates were incubated at 37° C., 5% CO2 for 2 hours.
1× lysis buffer solution supplemented with blocking reagent was prepared (e.g. 1 mL lysis buffer 4X+3 mL water+40 μL stock blocking reagent 100X). Antibodies working solution was prepared by diluting 40-fold d2 and Cryptate antibodies with detection buffer(e.g. 1520 μL detection buffer+40 μL d2-antibody stock solution+[…] Cryptate-antibody stock solution).
After 2 hours incubation, cell plates were taken out from the incubator. […]

Sequence of LRRK2 wild type enzyme (Q5S007 whole entry): as above

SMILES | pIC50 (LRRK2 wild type enzyme) | pIC50 [1]
C[C@@H]1C[C@H](n2c(CC(=O)NCc3ccncc3)nc3cnc4ccc(C#N)cc4c32)CCO1 [Compound 15, 2-{8-cyano-1-[(2R,4R)-2-methyloxan-4-yl]-1H-imidazo[4,5-c]quinolin-2-yl}-N-[(pyridin-4-yl)methyl]acetamide] | 9.53 | 7.80
C[C@@H]1C[C@H](n2c(CC(N)=O)nc3cnc4ccc(C#N)cc4c32)CCO1 [Compound 16, 2-{8-cyano-1-[(2R,4R)-2-methyloxan-4-yl]-1H-imidazo[4,5-c]quinolin-2-yl}acetamide] | 8.94 | 6.84
C[C@@H]1C[C@H](n2c(CNC(=O)C3CC3)nc3cnc4ccc(C#N)cc4c32)CCO1 [Compound 17, N-({8-cyano-1-[(2R,4R)-2-methyloxan-4-yl]-1H-imidazo[4,5-c]quinolin-2-yl}methyl)cyclopropanecarboxamide] | 8.18 | 6.32
C[C@@H]1C[C@H](n2c(CNC(=O)CC3CC3)nc3cnc4ccc(C#N)cc4c32)CCO1 [Compound 18, N-({8-cyano-1-[(2R,4R)-2-methyloxan-4-yl]-1H-imidazo[4,5-c]quinolin-2-yl}methyl)-2-cyclopropylacetamide] | 8.59 | 6.74
C[C@@H]1C[C@H](n2c(CNC(=O)c3ccccn3)nc3cnc4ccc(C#N)cc4c32)CCO1 [Compound 19, N-({8-cyano-1-[(2R,4R)-2-methyloxan-4-yl]-1H-imidazo[4,5-c]quinolin-2-yl}methyl)pyridine-2-carboxamide] | 9.23 | 7.64
C[C@@H]1C[C@H](n2c(CNC(=O)c3cnn(C)c3)nc3cnc4ccc(C#N)cc4c32)CCO1 [Compound 20, N-({8-cyano-1-[(2R,4R)-2-methyloxan-4-yl]-1H-imidazo[4,5-c]quinolin-2-yl}methyl)-1-methyl-1H-pyrazole-4-carboxamide] | 8.74 | 6.65
C[C@@H]1C[C@H](n2c(CNS(C)(=O)=O)nc3cnc4ccc(C#N)cc4c32)CCO1 [Compound 21, N-({8-cyano-1-[(2R,4R)-2-methyloxan-4-yl]-1H-imidazo[4,5-c]quinolin-2-yl}methyl)methanesulfonamide] | 8.29 | 6.19
C[C@@H]1C[C@H](n2c(CNS(=O)(=O)C3CC3)nc3cnc4ccc(C#N)cc4c32)CCO1 [Compound 22, N-({8-cyano-1-[(2R,4R)-2-methyloxan-4-yl]-1H-imidazo[4,5-c]quinolin-2-yl}methyl)cyclopropanesulfonamide] | 8.17 | 6.27
CC(=O)NCc1nc2cnc3ccc(C#N)cc3c2n1[C@@H]1CCO[C@H](C)C1 [Compound 23, N-({8-cyano-1-[(2R,4R)-2-methyloxan-4-yl]-1H-imidazo[4,5-c]quinolin-2-yl}methyl)acetamide] | 8.32 | 6.18
C[C@@H]1C[C@H](n2c([C@@H]3CCN(S(=O)(=O)C4CC4)C3)nc3cnc4ccc(C#N)cc4c32)CCO1 [Compound 24, 2-[(3R)-1-(cyclopropanesulfonyl)pyrrolidin-3-yl]-1-[(2R,4R)-2-methyloxan-4-yl]-1H-imidazo[4,5-c]quinoline-8-carbonitrile] | 8.27 | 6.17
C[C@@H]1C[C@H](n2c([C@H]3CCN(S(=O)(=O)C4CC4)C3)nc3cnc4ccc(C#N)cc4c32)CCO1 [Compound 25, 2-[(3S)-1-(cyclopropanesulfonyl)pyrrolidin-3-yl]-1-[(2R,4R)-2-methyloxan-4-yl]-1H-imidazo[4,5-c]quinoline-8-carbonitrile] | 8.21 | 6.25
C[C@@H]1C[C@H](n2c([C@H]3CCN(C(=O)OC(C)(C)C)C3)nc3cnc4ccc(C#N)cc4c32)CCO1 [Compound 26, tert-butyl (3S)-3-{8-cyano-1-[(2R,4R)-2-methyloxan-4-yl]-1H-imidazo[4,5-c]quinolin-2-yl}pyrrolidine-1-carboxylate] | 8.28 | 6.34
C[C@@H]1C[C@H](n2c(C3CCN(C(=O)C4CC4)CC3)nc3cnc4ccc(C#N)cc4c32)CCO1 [Compound 27, 2-(1-cyclopropanecarbonylpiperidin-4-yl)-1-[(2R,4R)-2-methyloxan-4-yl]-1H-imidazo[4,5-c]quinoline-8-carbonitrile] | 8.83 | 6.94
C[C@@H]1C[C@H](n2c([C@@H]3CCCN(C(=O)C4CC4)C3)nc3cnc4ccc(C#N)cc4c32)CCO1 [Compound 28, 2-[(3R)-1-cyclopropanecarbonylpiperidin-3-yl]-1-[(2R,4R)-2-methyloxan-4-yl]-1H-imidazo[4,5-c]quinoline-8-carbonitrile] | 7.91 | 6.11
C[C@@H]1C[C@H](n2c([C@H]3CCCN(C(=O)C4CC4)C3)nc3cnc4ccc(C#N)cc4c32)CCO1 [Compound 29, 2-[(3S)-1-cyclopropanecarbonylpiperidin-3-yl]-1-[(2R,4R)-2-methyloxan-4-yl]-1H-imidazo[4,5-c]quinoline-8-carbonitrile] | 6.87 | 5.33
C[C@@H]1C[C@H](n2c(CN)nc3cnc4ccc(C#N)cc4c32)CCO1 [Compound 32, 2-(aminomethyl)-1-[(2R,4R)-2-methyloxan-4-yl]-1H-imidazo[4,5-c]quinoline-8-carbonitrile] | 8.26 | 6.37
C[C@@H]1C[C@H](n2c(CNC(=O)OC(C)(C)C)nc3cnc4ccc(C#N)cc4c32)CCO1 [Compound 33, tert-butyl N-({8-cyano-1-[(2R,4R)-2-methyloxan-4-yl]-1H-imidazo[4,5-c]quinolin-2-yl}methyl)carbamate] | 8.28 | 6.40
C[C@@H]1C[C@H](n2c(C3CC(=O)N([C@H](C)C4CC4)C3)nc3cnc4ccc(C#N)cc4c32)CCO1 (stereo partly drawn) [Compound 34, 2-{1-[(1R)-1-cyclopropylethyl]-5-oxopyrrolidin-3-yl}-1-[(2R,4R)-2-methyloxan-4-yl]-1H-imidazo[4,5-c]quinoline-8-carbonitrile] | 8.37 | 6.56
